pEC50: −log10 of the molar value. Where a name gives a salt, the structure may show the parent alone. Read-outs that look alike come from different tables or passages of the source.
System: NQO1 specific enzyme activity in BEAS-2B cells
Test: BEAS-2B NQO1 MTT assay
Format: cell-based
Settings: BEAS-2B cells, 48 hours with compound, MTT readout, read-out: EC50 of NQO1 specific activity induction
Description: NAD(P)H:quinone oxidoreductase 1 (NQO1), also called DT diaphorase, is a homodimeric FAD-containing enzyme that catalyzes obligatory NAD(P)H-dependent two-electron reductions of quinones and protects cells against the toxic and neoplastic effects of free radicals and reactive oxygen species arising from one-electron reductions. The transcription of NQO1 is finely regulated by NRF2, and thus NQO1 activity is a good marker for NRF2 activation. On day one, frozen BEAS-2B cells (ATCC) are thawed in a water bath, counted, and re-suspended at a concentration of 250,000 cells/mL. Fifty microliters of cells are plated in 384 well black clear-bottomed plates. Plates are incubated at 37° C., 5% CO2 overnight. On day two, plates are centrifuged and 50 nL of compound or controls are added to the cells. Plates are then incubated at 37° C., 5% CO2 for 48 hours. On day four, medium is aspirated from the plate and crude cell lysates are made by adding 13 uL of 1× Cell Signaling Technologies lysis buffer with 1 Complete, Mini, EDTA-free Protease Inhibitor Tablet (Roche) for each 10 mL of lysis buffer. After lysis plates are incubated for 20 minutes at room temperature. Two microliters of lysate are removed for use in Cell Titer Glo assay (Promega) and MTT cocktail is prepared (Prochaska et. al. 1998) for measurement of NQO1 activity. Fifty microliters of MTT cocktail is added to each well, plate is centrifuged, and analyzed on an Envision plate reader (Perkin Elmer) using Absorbance 570 nm label for 30 minutes. Product formation is measured kinetically and the EC50 of NQO1 specific activity induction is calculated by plotting the change in absorbance (Delta OD/min) versus the log of compound concentration followed by 3-parameter fitting.

Compound	pEC50 (Homo sapiens, BEAS-2B, 48 h)	pEC50
CCC1CCN(Cc2nccn2Cc2cc([C@H](c3ccc4c(nnn4C)c3C)C(C)C(=O)O)ccc2C)CC1 (stereo partly drawn) [Example 152, (3R)-3-(1,4-Dimethyl-1H-benzo[d][1,2,3]triazol-5-yl)-3-(3-((2-((4-ethylpiperidin-1-yl)methyl)-1H-imidazol-1-yl)methyl)-4-methylphenyl)-2-methylpropanoic Acid, Trifluoroacetic Acid Salt]	6.00 to 7.00	
CCC1CN(Cc2cc(C(c3ccc4c(nnn4C)c3C)C(C)(C)C(=O)O)ccc2C)CCC(C2CC2)O1 (stereo not drawn) [Example 246, 3-(3-((7-Cyclopropyl-2-ethyl-1,4-oxazepan-4-yl)methyl)-4-methylphenyl)-3-(1,4-dimethyl-1H-benzo[d][1,2,3]triazol-5-yl)-2,2-dimethylpropanoic Acid]	6.00 to 7.00	
CCn1nnc2c(C)c(C(CC(=O)O)c3ccc(C)c(CN4Cc5ccccc5O[C@@H](C)C4)c3)ccc21 (stereo partly drawn) [Example 97, 3-(1-Ethyl-4-methyl-1H-benzo[d][1,2,3]triazol-5-yl)-3-(4-methyl-3-(((S)-2-methyl-2,3-dihydrobenzo[f][1,4]oxazepin-4(5H)-yl)methyl)phenyl)propanoic Acid, Formic Acid Salt]	6.00 to 7.00	
CC[C@@H]1CN(Cc2cc(C(CCc3cn(CC)nn3)CC(=O)O)ccc2C)Cc2cnccc2O1 (stereo partly drawn) [Example 232, 5-(1-Ethyl-1H-1,2,3-triazol-4-yl)-3-(3-(((R)-2-ethyl-2,3-dihydropyrido[3,4-f][1,4]oxazepin-4(5H)-yl)methyl)-4-methylphenyl)pentanoic Acid]	6.00 to 7.00	
Cc1ccc(C(CC(=O)O)c2ccc3c(nnn3C)c2C)cc1CN1Cc2ccc(Br)cc2O[C@@H](C)C1 (stereo partly drawn) [Example 93, 3-(3-(((S)-8-bromo-2-methyl-2,3-dihydrobenzo[f][1,4]oxazepin-4(5H)-yl)methyl)-4-methylphenyl)-3-(1,4-dimethyl-1H-benzo[d][1,2,3]triazol-5-yl)propanoic Acid, Formic Acid Salt]	8.00 to 9.00	
CC[C@@H]1CN(Cc2cc(C(CCc3cn(CC)nn3)C(C)(C)C(=O)O)ccc2C)Cc2ncccc2O1 (stereo partly drawn) [Example 216, 5-(1-Ethyl-1H-1,2,3-triazol-4-yl)-3-(3-(((R)-2-ethyl-2,3-dihydropyrido[2,3-f][1,4]oxazepin-4(5H)-yl)methyl)-4-methylphenyl)-2,2-dimethylpentanoic Acid]	8.00 to 9.00	
Cc1ccc(C(CC(=O)NS(C)(=O)=O)c2ccc3c(nnn3C)c2C)cc1CN1Cc2ccccc2OC(C)(C)C1 (stereo not drawn) [Example 187, 3-(1,4-Dimethyl-1H-benzo[d][1,2,3]triazol-5-yl)-3-(3-((2,2-dimethyl-2,3-dihydrobenzo[f][1,4]oxazepin-4(5H)-yl)methyl)-4-methylphenyl)-N-(methylsulfonyl)propanamide]	6.00 to 7.00	
CC[C@@H]1CN(Cc2cc(C(CCc3cn(CC)nn3)C(C)(C)C(=O)O)ccc2C)Cc2ncccc2O1 (single isomer, unassigned) [Example 251]		8.00 to 9.00
CC[C@@H]1CN(Cc2cc(C(CCc3cn(CC)nn3)CC(=O)O)ccc2Cl)Cc2ncccc2O1 (stereo partly drawn) [Example 231, 3-(4-Chloro-3-(((R)-2-ethyl-2,3-dihydropyrido[2,3-f][1,4]oxazepin-4(5H)-yl)methyl)phenyl)-5-(1-ethyl-1H-1,2,3-triazol-4-yl)pentanoic Acid]	6.00 to 7.00	
Cc1ccc(C(CC(=O)O)c2ccc3c(nnn3C)c2C)cc1CN1Cc2ccccc2O[C@H](C)C1 (stereo partly drawn) [Example 94, 3-(1,4-Dimethyl-1H-benzo[d][1,2,3]triazol-5-yl)-3-(4-methyl-3-(((R)-2-methyl-2,3-dihydrobenzo[f][1,4]oxazepin-4(5H)-yl)methyl)phenyl)propanoic Acid, Formic Acid Salt]	8.00 to 9.00	
CCC1Cc2ccc(F)cc2CN(Cc2cc(C(CC(=O)O)c3ccc4c(nnn4C)c3C)ccc2C)C1 (stereo not drawn) [compound 107, 3-(1,4-dimethyl-1H-benzo[d][1,2,3]triazol-5-yl)-3-(3-((4-ethyl-8-fluoro-4,5-dihydro-1H-benzo[c]azepin-2(3H)-yl)methyl)-4-methylphenyl)propanoic acid]	7.00 to 8.00	
Cc1ccc(C(CCc2cn(C)nn2)CC(=O)O)cc1Cn1ccnc1CC1CCCCC1 (stereo not drawn) [Example 130, 3-(3-((2-(Cyclohexylmethyl)-1H-imidazol-1-yl)methyl)-4-methylphenyl)-5-(1-methyl-1H-1,2,3-triazol-4-yl)pentanoic Acid]	6.00 to 7.00	
CC[C@@H]1CN(Cc2cc(C(c3ccc(F)cc3C)C(C)(C)C(=O)O)ccc2C)Cc2ccccc2O1 (stereo partly drawn) [Example 115, 3-(3-(((R)-2-ethyl-2,3-dihydrobenzo[f][1,4]oxazepin-4(5H)-yl)methyl)-4-methylphenyl)-3-(4-fluoro-2-methylphenyl)-2,2-dimethylpropanoic Acid, Formic Acid Salt]	5.00 to 6.00	
Cc1ccc(C(c2ccc3c(nnn3C)c2C)C(C)(C)C(=O)O)cc1Cn1ccnc1CC1CCCCC1 (stereo not drawn) [Example 143, 3-(3-((2-(Cyclohexylmethyl)-1H-imidazol-1-yl)methyl)-4-methylphenyl)-3-(1,4-dimethy-1H-benzo[d][1,2,3]triazol-5-yl)-2,2-dimethylpropanoic acid, trifluoroacetic acid salt]	5.00 to 6.00	
Cc1ccc(C(c2ccc3c(nnn3C)c2C)C(C)(C)C(=O)O)cc1CN1CCOc2ccccc2C1 (stereo not drawn) [Example 44, 3-(3-((2,3-Dihydrobenzo[f][1,4]oxazepin-4(5H)-yl)methyl)-4-methylphenyl)-3-(1,4-dimethyl-1H-benzo[d][1,2,3]triazol-5-yl)-2,2-dimethylpropanoic Acid, Formic Acid Salt]	7.00 to 8.00	
CC[C@@H]1CN(Cc2cc(C(CC(=O)O)c3ccc4c(nnn4C)c3C)ccc2C)Cc2ccc(C)cc2O1 (stereo partly drawn) [Example 85, Ammoniumn 3-(1,4-Dimethyl-1H-benzo[d][1,2,3]triazol-5-yl)-3-(3-(((R)-2-ethyl-8-methyl-2,3-dihydrobenzo[f][1,4]oxazepin-4(5H)-yl)methyl)-4-methyphenyl)propanoate]	6.00 to 7.00	
CCn1cc(CCC(c2ccc(C)c(CN3Cc4ncccc4OC(C)(C)C3)c2)C(C)(C)C(=O)O)nn1 (stereo not drawn) [Example 221, 3-(3-((2,2-Dimethyl-2,3-dihydropyrido[2,3-f][1,4]oxazepin-4(5H)-yl)methyl)-4-methylphenyl)-5-(1-ethyl-1H-1,2,3-triazol-4-yl)-2,2-dimethylpentanoic Acid]	7.00 to 8.00	
Cc1ccc(C(c2ccc3c(nnn3C)c2C)C(C)(C)C(=O)O)cc1Cn1ccnc1CN1CCCOCC1 (stereo not drawn) [Example 138, 3-(3-((2-((1,4-Oxazepan-4-yl)methyl)-1H-imidazol-1-yl)methyl)-4-methylphenyl)-3-(1,4-dimethyl-1H-benzo[d][1,2,3]triazol-5-yl)-2,2-dimethylpropanoic Acid]	5.00 to 6.00	
CCn1nnc2c(F)c([C@H](c3ccc(C)c(CN4Cc5ccccc5OC(C)(C)C4)c3)[C@@H](C)C(=O)O)ccc21 [Example 193, (2R,3S)-3-(3-((2,2-Dimethyl-2,3-dihydro-benzo[f][1,4]oxazepin-4(5H)-yl)methyl)-4-methylphenyl)-3-(1-ethyl-4-fluoro-1H-benzo[d][1,2,3]triazol-5-yl)-2-methylpropanoic acid, Sodium salt]	8.00 to 9.00	
Cc1ccc(C(c2ccc3c(nnn3C)c2C)C(C)(C)C(=O)O)cc1CN1CCCc2ccccc2C1 (stereo not drawn) [Example 104, 3-(3-((4,5-Dihydro-1H-benzo[c]azepin-2(3H)-yl)methyl)-4-methylphenyl)-3-(1,4-dimethyl-1H-benzo[d][1,2,3]triazol-5-yl)-2,2-dimethylpropanoic acid]	8.00 to 9.00	
CCn1nnc2c(F)c([C@@H](CC(=O)O)c3ccc(C)c(CN4Cc5ccccc5OC(C)(C)C4)c3)ccc21 [Example 64, (S)-3-(3-((2,2-Dimethyl-2,3-dihydrobenzo[f][1,4]oxazepin-4(5H)-yl)methyl)-4-methylphenyl)-3-(1-ethyl-4-fluoro-1H-benzo[d][1,2,3]triazol-5-yl)propanoic Acid]	7.00 to 8.00	
Cc1ccc([C@@H](c2ccc3c(nnn3C)c2C)[C@@H](C)C(=O)O)cc1CN1Cc2cnccc2OC(C)(C)C1 [Example 203, (2R,3S)-3-(1,4-Dimethyl-1H-benzo[d][1,2,3]triazol-5-yl)-3-(3-((2,2-dimethyl-2,3-dihydropyrido[3,4-f][1,4]oxazepin-4(5H)-yl)methyl)-4-methylphenyl)-2-methylpropanoic Acid, 0.2 Formic Acid Salt]	7.00 to 8.00	
Cc1cc2c(cn1)CN(Cc1cc(C(CC(=O)O)c3ccc4c(nnn4C)c3C)ccc1C)CC(C)(C)O2 (stereo not drawn) [Example 108, 3-(1,4-dimethyl-1H-benzo[d][1,2,3]triazol-5-yl)-3-(4-methyl-3-((2,2,8-trimethyl-2,3-dihydropyrido[3,4-f][1,4]oxazepin-4(5H)-yl)methyl)phenyl)propanoic Acid, Formic Acid Salt]	5.00 to 6.00	
Cc1ccc(C(CC(=O)O)c2ccc3c(nnn3C)c2C)cc1Cn1cnc(CC2CCCCC2)c1 (stereo not drawn) [Example 136, 3-(3-((4-(Cyclohexylmethyl)-1H-imidazol-1-yl)methyl)-4-methylphenyl)-3-(1,4-dimethyl-1H-benzo[d][1,2,3]triazol-5-yl)propanoic Acid]	7.00 to 8.00	

Source: patent US10604509B2, “Nrf2 regulators” (GlaxoSmithKline Intellectual Property Development Limited, priority 2015, dated 2020)
